Values of other authors in patent publication US7709454B2, “Methods and compositions for inhibiting tumorigenesis” (New York University, priority 1997, dated 2010).

How the values were obtained:
[1] = tested on: MMTV-TGFa/neu transgenic Mice/mammary tumors; conditions: 40 mg/kg/d; cited from earlier work
[2] = cell type not given; cited from earlier work
[3] = tested on: MMTV-v-H-RAS transgenic mice/Mammary, salivary Carcinoma; conditions: cited from earlier work
[4] = tested on: MMTV-N-RAS^N transgenic Mice/lymphoid and mammary tumors; conditions: 40 mg/kg/d; cited from earlier work

SMILES: CC[C@H](C)[C@@H](CO[C@@H](Cc1ccccc1)C(=O)N[C@@H](CCS(C)(=O)=O)C(=O)OC(C)C)NC[C@@H](N)CS [L-744,832]
- tumor mean growth rate in the presence of the Ftase inhibitor [1]: −7.4 vs 19 mm3/day
- IC50 [2]: 1 to 10 µM
- tumor mean growth rate in the presence of the Ftase inhibitor ([3]; 10-40 mg/kg/d): −5.4 vs 16.7 mm3/day
- tumor response ([3]; mammary and salivary carcinomas in MMTV-v-Ha-Ras mice): induced regression
- tumor mean growth rate in the presence of the Ftase inhibitor [4]: −0.7 vs 28.3 mm3/day
